In patent publication US20240238232A1, “COMPOSITIONS AND METHODS FOR THE REDUCTION OR TREATMENT OF INSULIN RESISTANCE AND METABOLIC CONDITIONS” (AXCELLA HEALTH INC., priority 2018, published 2024):
Values joined by “and” are separate entries in the source; they are usually repeats but may differ in a detail not shown here. Equal values may be shown once.

Assays:
[1] = test system: α-smooth muscle actin (αSMA), activated hepatic stellate cells; assay: α-smooth muscle actin staining of liver sections (activated hepatic stellate cells) in STAM mice, Example 2; format: in vivo, mouse; conditions: A-1 1500 mg/kg twice daily, OCA 30 mg/kg once daily
Experimental: Amino Acid Composition A-1 and Obeticholic acid (6α-ethyl-chenodeoxycholic acid; “OCA”) were tested for their ability to treat NASH in the STAM™ model (Stelic Institute & Co., Tokyo, Japan; Saito K. et al., 2015 Sci Rep 5:12466). Two additional groups of normal C57BL/6 mice fed standard chow and vehicle treated STAM™ mice were included as controls. All animals receiving treatment or vehicle were treated starting at 6 weeks until 9 weeks of age. Compounds were administered via oral gavage, with a dose volume of 10 ml/kg. Amino Acid Composition A-1 was administered twice daily at a dose of 1500 mg/kg, and OCA was administered once daily at a dose of 30 mg/kg.
Amino Acid Composition A-1, OCA and Vehicle (described below) were administered by oral route in a volume of 10 mL/kg. Amino Acid Composition A-1 was solubilized in deionized water to 150 mg/ml (10 X). OCA (Advanced ChemBlocks Inc.) was resuspended in 0.5% methycellulose in water to 3 mg/ml (10 X). Amino Acid Composition A-1 was administered at a dose of 1500 mg/kg twice daily (9 am and 7 pm). OCA was administered at a dose of 30 mg/kg once daily (9 am).
Liver sections of all mice were stained for the marker α-smooth muscle actin (αSMA) to identify activated hepatic stellate cells. Images were quantified using the percent of positively stained area was used as a measure of stellate cell activation. […]

FATZO mouse model [2] = assay: Liver fibrosis score and Sirius Red collagen staining in FATZO mice on WDF, Example 5; format: in vivo; conditions: oral, 4 weeks, LIVRQNAC + G 3885 mg/kg, LRQNAC 2469 mg/kg, OCA 30 mg/kg/day
Text: (§1) NASH was induced in 60 male FATZO mice by a western diet (Research Diet #D12079B; fat 40% kcal, protein 17% kcal, carbohydrate 43% kcal) supplemented with 500 fructose in the drinking water (WDF) during a 16 week induction phase. Diets and water were available ad libitum. Littermate control male FATZO mice fed with a control diet (n=6, Purina #5008; fat 17% kcal, protein 27% kcal, carbohydrate 56% kcal) and sterile water were set up for control purpose. Mice were housed in plastic cages with microisolator. Sterilized bedding was replaced once a week. Mice were housed three per cage and maintained on a twelve hour light cycle throughout study duration. Room temperature was monitored daily and maintained at 22-25° C. Body weight was recorded every week during the induction phase. […]
(§2) […], […]+G, LRQNAC, OCA and Vehicle were administered by oral gavage at a volume of 10 mL/kg throughout the study. Dosages were calculated by daily body weight. […]
The livers were evaluated using the NASH liver criteria for scoring. In this mouse study, one cross section of liver for each case was analyzed with the NASH score system. […] The NAS can range from 0 to 8 and is calculated by the sum of scores of steatosis (0-3), lobular inflammation (0-3) and hepatocyte ballooning (0-2) from H&E stained sections. Fibrosis was scored (0-4) from picrosirius red stained slides. […]

FATZO mouse model [3] = assay: Body weight, liver weight and clinical observations in FATZO mice on WDF, Example 5; format: in vivo; conditions: oral gavage 4 weeks, LIVRQNAC 3000 mg/kg, LIVRQNAC+G 3,885 mg/kg, LRQNAC 2,469 mg/kg BID, OCA QD
Text: as §1, §2
(§3) The viability, clinical signs and behavior were monitored daily. Body weight was recorded daily during the dosing period. […]
Animals were anesthetized with CO2 inhalation and exsanguinated via cardiac puncture for euthanasia. […] Organ weights (total liver, gonadal fat pads) were recorded. […]

FATZO mouse model [4] = assay: Blood glucose in FATZO mice on WDF, Example 5; format: in vivo; conditions: oral gavage 4 weeks, LIVRQNAC 3000 mg/kg, LIVRQNAC+G 3,885 mg/kg, LRQNAC 2,469 mg/kg BID, OCA QD
Text: NASH was induced in 60 male FATZO mice by a western diet (Research Diet #D12079B; fat 40% kcal, protein 17% kcal, carbohydrate 43% kcal) supplemented with 500 fructose in the drinking water (WDF) during a 16 week induction phase. Diets and water were available ad libitum. Littermate control male FATZO mice fed with a control diet (n=6, Purina #5008; fat 17% kcal, protein 27% kcal, carbohydrate 56% kcal) and sterile water were set up for control purpose. Mice were housed in plastic cages with microisolator. Sterilized bedding was replaced once a week. Mice were housed three per cage and maintained on a twelve hour light cycle throughout study duration. Room temperature was monitored daily and maintained at 22-25° C. Body weight was recorded every week during the induction phase.
Following 16 weeks diet induction, 6 mice remained on control diet (group 1, Control) while 60 induced mice were randomized on body weight and plasma glucose (fed) for assignment to the following treatments. FATZO mice were administered with test articles starting at 16 weeks post western diet NASH induction for 4 weeks. […]
as §2, §3

## CC[C@H]1[C@@H](O)[C@@H]2[C@H](CC[C@]3(C)[C@@H]([C@H](C)CCC(=O)O)CC[C@@H]23)[C@@]2(C)CC[C@@H](O)C[C@@H]12 [OCA, 6α-ethyl-chenodeoxycholic acid]
[1]; STAM mice, oral, 6 to 9 weeks of age
  Activated hepatic stellate cells (mean positively stained area, α-smooth muscle actin): 1.562+/−0.31% and 1.562%
[1]; individual STAM mice
  Activated hepatic stellate cells (positively stained area, α-smooth muscle actin): raw data: 1.51% and 1.49% (2×) and 1.17% and 1.13% and 2.03% and 1.87% and 1.97% and 1.46%
FATZO mouse model [2]
  Fibrosis (score): 0.67 ± 0.167
  Sirius Red (collagen staining): 1.59 ± 0.36
FATZO mouse model [3]
  Liver weight (% body weight): 6.81±0.2 % body weight
FATZO mouse model [4]
  Average blood glucose over the dosing period: 169.7 ± 6.3 mg/dL
